Literature values, collected in US20100093842A1, “Laulimalide Analogs and Uses Thereof” (EISAI CO. LTD., priority 2003, published 2010).

What was measured:
[1] = tested on: multi-drug resistant (MDR) cell lines that over express the P-glycoprotein pump (P-gp); conditions: cell lines over expressing P-gp
tubulin = conditions: low micromolar concentrations; compared with equivalent concentrations of Laulimalide

SMILES	in vitro anti-mitotic activity (several cancer lines; in vitro)	cytotoxic activity (several cancer lines; several cancer lines)	activity against multi-drug resistant (MDR) cell lines [1]	rate of polymerization (tubulin)	tubulin polymer formed (tubulin)
C=C1C[C@H](C)C[C@@H]2CC=C[C@@H](C/C=C\C(=O)O[C@H]([C@@H](O)/C=C/[C@@H]3CC(C)=CCO3)C[C@@H]3O[C@H]3[C@@H](O)C1)O2 [Laulimalide]	5 to 12 nM	potent cytotoxic activity	show activity against multi-drug resistant (MDR) cell lines	–	–
CC(=O)O[C@H]1C(=O)[C@@]2(C)[C@H]([C@H](OC(=O)c3ccccc3)[C@]3(O)C[C@H](OC(=O)[C@H](O)[C@@H](NC(=O)c4ccccc4)c4ccccc4)C(C)=C1C3(C)C)[C@]1(OC(C)=O)CO[C@@H]1C[C@@H]2O [Paclitaxel]	–	–	–	faster	more tubulin polymer was formed
